ChEMBL document CHEMBL5532646, “Discovery of 4-(N-dithiobenzyl piperazine)-1,8-naphthalimide as a potent multi-target antitumor agent with good efficacy, limited toxicity, and low resistance” (Eur J Med Chem, 2024)

test system: T-24; assay: Antiproliferative activity against human T24 cells incubated for 48 hrs by MTT assay; format: functional, cell-based; settings: T-24, 48 h

SMILES	IC50 [µM]
CCCCN1C(=O)c2cccc3c(N4CCN(C(=O)OC(C)(C)C)CC4)ccc(c23)C1=O	> 50
CC(C)(C)OC(=O)N1CCN(c2ccc3c4c(cccc24)C(=O)N(CCc2ccc4c(c2)OCO4)C3=O)CC1	3.69
O=C1c2cccc3c(N4CCN(C(=S)SCc5ccccc5)CC4)ccc(c23)C(=O)N1Cc1ccc(Cl)cc1	21.1
O=C(c1ccccc1)N1CCN(c2ccc3c4c(cccc24)C(=O)N(Cc2ccc(Cl)cc2)C3=O)CC1	29.2
O=C(c1ccccc1)N1CCN(c2ccc3c4c(cccc24)C(=O)N(Nc2ccccc2)C3=O)CC1	19.3
O=C1c2cccc3c(N4CCN(C(=S)SCc5ccccc5)CC4)ccc(c23)C(=O)N1CCc1ccc(O)c(O)c1	31.2
CCCCN1C(=O)c2cccc3c(N4CCN(C(=S)SCc5ccccc5)CC4)ccc(c23)C1=O	22.6
O=c1[nH]cc(F)c(=O)[nH]1 [FLUOROURACIL]	40.1
CNCCN1C(=O)c2cccc3c(N4CCN(C(=O)OC(C)(C)C)CC4)ccc(c23)C1=O	3.88
CC(C)(C)OC(=O)N1CCN(c2ccc3c4c(cccc24)C(=O)N(Nc2nc4ccccc4s2)C3=O)CC1	20.3
CC(C)(C)OC(=O)N1CCN(c2ccc3c4c(cccc24)C(=O)N(Nc2ccccn2)C3=O)CC1	12.4
O=C1c2cccc3c(N4CCN(C(=S)SCc5ccccc5)CC4)ccc(c23)C(=O)N1Nc1ccccn1	> 50
CC(C)(C)OC(=O)N1CCN(c2ccc3c4c(cccc24)C(=O)N(c2nc4ccccc4[nH]2)C3=O)CC1	> 50
O=C1c2cccc3c(N4CCN(C(=S)SCc5ccccc5)CC4)ccc(c23)C(=O)N1Nc1nc2ccccc2s1	20.4
O=C(c1ccccc1)N1CCN(c2ccc3c4c(cccc24)C(=O)N(CCc2ccc4c(c2)OCO4)C3=O)CC1	24.4
CN(C)CCN1C(=O)c2cccc3c(N4CCN(C(=O)OC(C)(C)C)CC4)ccc(c23)C1=O	6.91

test system: SK-OV-3; assay: Antiproliferative activity against human SK-OV-3 cells incubated for 48 hrs by MTT assay; format: functional, cell-based; settings: SK-OV-3, 48 h

SMILES	IC50 [µM]
CCCCN1C(=O)c2cccc3c(N4CCN(C(=O)OC(C)(C)C)CC4)ccc(c23)C1=O	> 50
CC(C)(C)OC(=O)N1CCN(c2ccc3c4c(cccc24)C(=O)N(CCc2ccc4c(c2)OCO4)C3=O)CC1	4.16
O=C1c2cccc3c(N4CCN(C(=S)SCc5ccccc5)CC4)ccc(c23)C(=O)N1Cc1ccc(Cl)cc1	28.8
O=C(c1ccccc1)N1CCN(c2ccc3c4c(cccc24)C(=O)N(Cc2ccc(Cl)cc2)C3=O)CC1	31
O=C(c1ccccc1)N1CCN(c2ccc3c4c(cccc24)C(=O)N(Nc2ccccc2)C3=O)CC1	23.3
O=C1c2cccc3c(N4CCN(C(=S)SCc5ccccc5)CC4)ccc(c23)C(=O)N1CCc1ccc(O)c(O)c1	35
CCCCN1C(=O)c2cccc3c(N4CCN(C(=S)SCc5ccccc5)CC4)ccc(c23)C1=O	25.3
CNCCN1C(=O)c2cccc3c(N4CCN(C(=O)OC(C)(C)C)CC4)ccc(c23)C1=O	5.42
CC(C)(C)OC(=O)N1CCN(c2ccc3c4c(cccc24)C(=O)N(Nc2nc4ccccc4s2)C3=O)CC1	23.5
CC(C)(C)OC(=O)N1CCN(c2ccc3c4c(cccc24)C(=O)N(Nc2ccccn2)C3=O)CC1	17.8
O=C1c2cccc3c(N4CCN(C(=S)SCc5ccccc5)CC4)ccc(c23)C(=O)N1Nc1ccccn1	> 50
CC(C)(C)OC(=O)N1CCN(c2ccc3c4c(cccc24)C(=O)N(c2nc4ccccc4[nH]2)C3=O)CC1	> 50
O=C1c2cccc3c(N4CCN(C(=S)SCc5ccccc5)CC4)ccc(c23)C(=O)N1Nc1nc2ccccc2s1	24.6
O=C(c1ccccc1)N1CCN(c2ccc3c4c(cccc24)C(=O)N(CCc2ccc4c(c2)OCO4)C3=O)CC1	35.2
CN(C)CCN1C(=O)c2cccc3c(N4CCN(C(=O)OC(C)(C)C)CC4)ccc(c23)C1=O	10.2

test system: HepG2; assay: Antiproliferative activity against human HepG2 cells incubated for 48 hrs by MTT assay; format: functional, cell-based; settings: HepG2, 48 h

SMILES	IC50 [µM]
CCCCN1C(=O)c2cccc3c(N4CCN(C(=O)OC(C)(C)C)CC4)ccc(c23)C1=O	> 50
CC(C)(C)OC(=O)N1CCN(c2ccc3c4c(cccc24)C(=O)N(CCc2ccc4c(c2)OCO4)C3=O)CC1	4.31
O=C1c2cccc3c(N4CCN(C(=S)SCc5ccccc5)CC4)ccc(c23)C(=O)N1Cc1ccc(Cl)cc1	25.3
O=C(c1ccccc1)N1CCN(c2ccc3c4c(cccc24)C(=O)N(Cc2ccc(Cl)cc2)C3=O)CC1	39.6
O=C(c1ccccc1)N1CCN(c2ccc3c4c(cccc24)C(=O)N(Nc2ccccc2)C3=O)CC1	21.5
O=C1c2cccc3c(N4CCN(C(=S)SCc5ccccc5)CC4)ccc(c23)C(=O)N1CCc1ccc(O)c(O)c1	31.1
CCCCN1C(=O)c2cccc3c(N4CCN(C(=S)SCc5ccccc5)CC4)ccc(c23)C1=O	29.7
O=c1[nH]cc(F)c(=O)[nH]1 [FLUOROURACIL]	25.5
CNCCN1C(=O)c2cccc3c(N4CCN(C(=O)OC(C)(C)C)CC4)ccc(c23)C1=O	7.48
CC(C)(C)OC(=O)N1CCN(c2ccc3c4c(cccc24)C(=O)N(Nc2nc4ccccc4s2)C3=O)CC1	22.4
CC(C)(C)OC(=O)N1CCN(c2ccc3c4c(cccc24)C(=O)N(Nc2ccccn2)C3=O)CC1	15.3
O=C1c2cccc3c(N4CCN(C(=S)SCc5ccccc5)CC4)ccc(c23)C(=O)N1Nc1ccccn1	> 50
CC(C)(C)OC(=O)N1CCN(c2ccc3c4c(cccc24)C(=O)N(c2nc4ccccc4[nH]2)C3=O)CC1	> 50
O=C1c2cccc3c(N4CCN(C(=S)SCc5ccccc5)CC4)ccc(c23)C(=O)N1Nc1nc2ccccc2s1	23.7
O=C(c1ccccc1)N1CCN(c2ccc3c4c(cccc24)C(=O)N(CCc2ccc4c(c2)OCO4)C3=O)CC1	31.5
CN(C)CCN1C(=O)c2cccc3c(N4CCN(C(=O)OC(C)(C)C)CC4)ccc(c23)C1=O	11.4

test system: MGC-803; assay: Antiproliferative activity against human MGC-803 cells incubated for 48 hrs by MTT assay; format: functional, cell-based; settings: MGC-803, 48 h

SMILES	IC50 [µM]
CCCCN1C(=O)c2cccc3c(N4CCN(C(=O)OC(C)(C)C)CC4)ccc(c23)C1=O	> 50
CC(C)(C)OC(=O)N1CCN(c2ccc3c4c(cccc24)C(=O)N(CCc2ccc4c(c2)OCO4)C3=O)CC1	5.78
O=C1c2cccc3c(N4CCN(C(=S)SCc5ccccc5)CC4)ccc(c23)C(=O)N1Cc1ccc(Cl)cc1	20.5
O=C(c1ccccc1)N1CCN(c2ccc3c4c(cccc24)C(=O)N(Cc2ccc(Cl)cc2)C3=O)CC1	43.6
O=C(c1ccccc1)N1CCN(c2ccc3c4c(cccc24)C(=O)N(Nc2ccccc2)C3=O)CC1	26.4
O=C1c2cccc3c(N4CCN(C(=S)SCc5ccccc5)CC4)ccc(c23)C(=O)N1CCc1ccc(O)c(O)c1	34.7
CCCCN1C(=O)c2cccc3c(N4CCN(C(=S)SCc5ccccc5)CC4)ccc(c23)C1=O	26.1
CNCCN1C(=O)c2cccc3c(N4CCN(C(=O)OC(C)(C)C)CC4)ccc(c23)C1=O	8.69
CC(C)(C)OC(=O)N1CCN(c2ccc3c4c(cccc24)C(=O)N(Nc2nc4ccccc4s2)C3=O)CC1	19.5
CC(C)(C)OC(=O)N1CCN(c2ccc3c4c(cccc24)C(=O)N(Nc2ccccn2)C3=O)CC1	16.5
O=C1c2cccc3c(N4CCN(C(=S)SCc5ccccc5)CC4)ccc(c23)C(=O)N1Nc1ccccn1	> 50
CC(C)(C)OC(=O)N1CCN(c2ccc3c4c(cccc24)C(=O)N(c2nc4ccccc4[nH]2)C3=O)CC1	> 50
O=C1c2cccc3c(N4CCN(C(=S)SCc5ccccc5)CC4)ccc(c23)C(=O)N1Nc1nc2ccccc2s1	18.5
O=C(c1ccccc1)N1CCN(c2ccc3c4c(cccc24)C(=O)N(CCc2ccc4c(c2)OCO4)C3=O)CC1	21.6
CN(C)CCN1C(=O)c2cccc3c(N4CCN(C(=O)OC(C)(C)C)CC4)ccc(c23)C1=O	10.9
